The structures appear in SMILES notation.

This assay deals with Phospholipid transfer protein (Homo sapiens) (UniProt P55058). Briefly: Inhibition of PLTP in plasma (unknown origin) at 150 uM using liver phospholipid, phospholipids liposome and HDL and TSE incubated for 1 hr relative to control.
Phospholipid transfer protein (Homo sapiens), sequence (P55058 whole entry): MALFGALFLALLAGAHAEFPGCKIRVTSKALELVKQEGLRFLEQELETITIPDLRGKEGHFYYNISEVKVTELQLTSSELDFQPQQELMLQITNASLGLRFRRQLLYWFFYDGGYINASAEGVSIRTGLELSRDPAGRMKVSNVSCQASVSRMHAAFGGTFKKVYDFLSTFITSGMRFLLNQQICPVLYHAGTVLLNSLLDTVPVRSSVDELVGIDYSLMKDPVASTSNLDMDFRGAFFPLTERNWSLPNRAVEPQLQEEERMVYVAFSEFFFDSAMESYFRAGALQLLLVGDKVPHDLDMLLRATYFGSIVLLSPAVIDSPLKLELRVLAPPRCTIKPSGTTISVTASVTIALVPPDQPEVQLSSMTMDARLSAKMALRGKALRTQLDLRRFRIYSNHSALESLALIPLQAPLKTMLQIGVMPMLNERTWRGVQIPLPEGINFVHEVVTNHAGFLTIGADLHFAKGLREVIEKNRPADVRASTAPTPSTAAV
What is called inhibition is the change of the read-out against control, counted positive when it falls. Consider `COc1ccc(C(=O)Nc2nc(-c3ccc(O)cc3)c(Cc3ccccc3)s2)cc1`, for which the inhibition was 0%.
Under `COc1ccc(-c2nc(N)sc2CC2CCCCC2)cc1` stands 0%; under `O=C(Nc1nc(-c2ccc(O)cc2)c(Cc2ccccc2)s1)c1ccc(Cl)cc1`, 0%.

The values above are taken from ChEMBL document CHEMBL4418478, “2,4,5-trisubstituted thiazole compounds,preparation methods,pharmaceutical compositions and medical uses thereof” (2016).
